Test results published in patent US20220232831A1, “NOVEL NON-CODING HETEROCYCLIC AMINO ACIDS (NCHAA) AND THEIR USE AS HERBICIDES” (Fortephest Ltd., priority 2019, published 2022).
Where a SMILES comes first, the peptide text is derived from it. [ ]: non-standard residue; d: D form. ξ: configuration not given here. ξ3Thi = NC(Cc1ccsc1)C(=O)O

What was measured:
[1] = system: Seeds of Lettuce R. (Super-Jericho); test: Filter paper bioassay with lettuce seeds (germination and early plant development); type: in vivo; details: lettuce seeds on filter paper; 1, 0.1, 0.01, 0.001 mM; radicle and shoots assessed after 6 days
Description: Seeds of Lettuce R. (Super-Jericho, non-sterilized) were obtained from Ben Shahar Moshe Ltd., 99% purity.
Filter Paper Bioassays with Lettuce Seeds:
The protocol is following Bertin et al. 2009 and Movellan et al. 2014 with specified modifications as described below.
Seeds were placed on Whatman no. 1 filter paper (Whatman, Middlesex, U.K.) in Petri dishes (10 seeds per plate) supplemented with 2.0 ml of water (Control) or with a solution comprising 1 mM, 0.1 mM, 0.01 mM and 0.001 mM of test material. Petri dishes with seeds were placed in a tray at an angle of 45°. The trays were kept in dark for 48 hours and then transferred to the growth chamber (22° C., 0.045 mmol×m−2×s−1 photosynthetic photon flux density; 6/18 dark/light cycle) for additional 4 days. Each experiment was performed at least in two repeats. The development of radicle and shoots of experimental and control plants were visually assessed 6 days after the beginning of the test to determine Minimal Effective Concentration (MEC) of test material. In the context of the invention, MEC is defined as the lowest concentration level of a test material that caused deviation (absence of germination or malformation of radicle and shoots) from the plant's development in the Control group.

[2] = system: Romaine lettuce (Lactuca sativa L.) plants; test: Post-emergency herbicidal activity on Romaine lettuce plants; type: in vivo; details: Romaine lettuce at stage 2 to 3 leaves; compound in 0.1% Silwet, up to 0.5%; visual evaluation vs control plants
Description: The tests were performed on Romaine lettuce (Lactuca sativa L.) plants at the stage 2 to 3 leaves. The plants were grown on 300 well trays packed with soil, well dimensions 2×2×5 cm. Each compound was dissolved in 0.1% water solution of agronomically acceptable surfactant Silwet to final concentrations ranging from 0.0% (Control) to 0.5%. Two weeks after the treatment the herbicidal effects of the respective test material were visually evaluated by a comparison with the control plants. In addition, the aboveground part of the plant was neatly cut and weighed (wet weight). Each test was performed on 20 to 40 plants. The degree of growth inhibition and damage was evaluated according to the parameters in Table 2. Plant development at 7, 14, and 21 DAA (days after application) were evaluated on a scale of 0 to 100, in which score 0 represents dead plants and score 100 represents healthy plants according to plant vigor, height, and leaf color. Each test included 20 to 40 plants.

Compound | Minimal Effective Concentration (MEC) as activity score, seeds germination & early plants development [1] | post-emergency herbicidal activity (Activity Index: plant's development vs Control) [2]
NC(Cc1ncsc1Cl)C(=O)O (centres unmarked) [Code 528] | Moderate (1 mM) | Weak (More than 75)
NC(Cc1cc(C(F)(F)F)cnc1Cl)C(=O)O (centres unmarked) [Code 663] | Strong (0.1 mM) | Moderate (From 50 to 75)
NC(Cc1cnc(Br)c(Br)c1)C(=O)O (centres unmarked) [Code 633] | Strong (0.1 mM) | Strong (From 25 to 50)
NC(Cc1ccc(Cl)nc1)C(=O)O (centres unmarked) [Code 627] | Strong (0.1 mM) | Moderate (From 50 to 75)
NC(CC1CCS(=O)(=O)C1)C(=O)O (centres unmarked) [Code 561] | Weak (More than 1 mM) | Weak (More than 75)
NC(Cc1csc([N+](=O)[O-])c1)C(=O)O (centres unmarked) [Code 553] | Weak (More than 1 mM) | Weak (More than 75)
NC(Cc1ccc[nH]c1=O)C(=O)O (centres unmarked) [Code 644] | Weak (More than 1 mM) | Weak (More than 75)
Cc1c(Cl)sc(Cl)c1S(=O)(=O)NCC(N)C(=O)O (centres unmarked) [Code 515] | Weak (More than 1 mM) | Weak (More than 75)
NC(Cc1cncc(C(F)(F)F)c1)C(=O)O (centres unmarked) [Code 637] | Strong (0.1 mM) | Weak (More than 75)
NC(Cc1c(F)cncc1F)C(=O)O (centres unmarked) [Code 630] | Moderate (1 mM) | Strong (From 25 to 50)
NC(CNS(=O)(=O)c1ccnc(Br)c1)C(=O)O (centres unmarked) [Code 657] | Weak (More than 1 mM) | Weak (More than 75)
NC(Cc1cnsn1)C(=O)O (centres unmarked) [Code 529] | Strong (0.1 mM) | Moderate (From 50 to 75)
COC(=O)C(N)Cc1cc(Cl)sc1Cl (centres unmarked) [Code 568] | – | Maximal (Less than 15)
CCCOC(=O)C(N)CNS(=O)(=O)c1ccnc(Br)c1 (centres unmarked) [Code 658] | Weak (More than 1 mM) | Weak (More than 75)
Nc1cccc(CC(N)C(=O)O)n1 (centres unmarked) [Code 609] | Weak (More than 1 mM) | Weak (More than 75)
NC(Cc1cc(Cl)nc(Cl)c1)C(=O)O (centres unmarked) [Code 628] | Moderate (1 mM) | Very Strong (From 15 to 25)
NC(Cc1ccc[n+](O)c1)C(=O)O (centres unmarked) [Code 668] | Weak (More than 1 mM) | Weak (More than 75)
Cc1sc(Cl)cc1CC(N)C(=O)O (centres unmarked) [Code 559] | – | Moderate (From 50 to 75)
Cl.NC(Cc1ccnc(C(F)(F)F)c1)C(=O)O (centres unmarked) [Code 679] | Strong (0.1 mM) | Strong (From 25 to 50)
NC(Cc1cccs1)C(=O)O (centres unmarked) [Code 501] | Maximal (0.01 mM and less) | Strong (From 25 to 50)
Nc1nc(CC(N)C(=O)O)cs1 (centres unmarked) [Code 522] | Weak (More than 1 mM) | Weak (More than 75)
CCOC(=O)C(N)Cc1cnc(Br)c(Br)c1 (centres unmarked) [Code 661] | Maximal (0.01 mM and less) | Moderate (From 50 to 75)
NC(CC1CCSC1)C(=O)O (centres unmarked) [Code 562] | Weak (More than 1 mM) | Weak (More than 75)
CCOCCOCCOC(=O)C(N)Cc1ccc(Br)nc1 (centres unmarked) [Code 675] | Strong (0.1 mM) | Moderate (From 50 to 75)

Compound | Minimal Effective Concentration (MEC) as activity score, seeds germination & early plants development [1] | post-emergency herbicidal activity (Activity Index: plant's development vs Control) [2]
CCOC(=O)C(Cc1ccnc(OC)n1)NC(C)=O (centres unmarked) [Code 673] | Weak (More than 1 mM) | Weak (More than 75)
NC(Cc1cscc1C(F)(F)F)C(=O)O (centres unmarked) [Code 566] | Strong (0.1 mM) | Maximal (Less than 15)
COC(=O)C(N)Cc1cc(Br)nc(Br)c1 (centres unmarked) [Code 670] | Strong (0.1 mM) | Very Strong (From 15 to 25)
CCOC(=O)C(N)CNS(=O)(=O)c1cc(Cl)sc1Cl (centres unmarked) [Code 524] | Weak (More than 1 mM) | Weak (More than 75)
CCOC(=O)C(Cc1cc(Cl)oc1Cl)NC(C)=O (centres unmarked) [Code 574] | Strong (0.1 mM) | Moderate (From 50 to 75)
COC(=O)C(Cc1ccc(Br)nc1)NC(C)=O (centres unmarked) [Code 672] | Strong (0.1 mM) | Moderate (From 50 to 75)
Nc1cc(Cl)nc(CC(N)C(=O)O)n1 (centres unmarked) [Code 616] | Weak (More than 1 mM) | Weak (More than 75)
CCCOC(=O)C(N)Cc1ccnc(Br)c1 (centres unmarked) [Code 654] | Strong (0.1 mM) | Strong (From 25 to 50)
NC(Cc1cc(C(F)(F)F)cs1)C(=O)O (centres unmarked) [Code 510] | – | Strong (From 25 to 50)
CCCCOCCOCCOC(=O)C(N)Cc1cn[nH]n1 (centres unmarked) [Code 775] | – | Maximal (Less than 15)
Cc1nnc(CC(N)C(=O)O)n1C.Cl (centres unmarked) [Code 773] | – | Weak (More than 75)
CCCCOC(=O)C(Cc1nc(Cl)sc1Cl)NC(C)=O (centres unmarked) [Code 554] | – | Maximal (Less than 15)
NC(Cc1ccsc1Br)C(=O)O (centres unmarked) [Code 560] | – | Strong (From 25 to 50)
CCCC(=O)NC(Cc1nc(Cl)sc1Cl)C(=O)OCC (centres unmarked) [Code 550] | – | Maximal (Less than 15)
Cl.Cn1nnc(CC(N)C(=O)O)n1 (centres unmarked) [Code 772] | – | Moderate (From 50 to 75)
NC(Cc1ccsc1)C(=O)NCC(=O)O (centres unmarked) [Code 548] (H-[ξ3Thi]-Gly-OH) | – | Strong (From 25 to 50)
N[C@@H](Cc1cn[nH]c1C(F)(F)F)C(=O)O [Code 774] | – | Very Strong (From 15 to 25)
NC(Cc1csc(Cl)c1)C(=O)O (centres unmarked) [Code 518] | – | Strong (From 25 to 50)
Cl.Cn1cc(CC(N)C(=O)O)nn1 (centres unmarked) [Code 771] | – | Weak (More than 75)
CCCCOCCOC(=O)C(Cc1nc(Cl)sc1Cl)NC(C)=O (centres unmarked) [Code 551] | – | Maximal (Less than 15)
Cl.NC(Cc1n[nH]c2ccccc12)C(=O)O (centres unmarked) [Code 599] | Maximal (0.01 mM and less) | –
Cn1cnnc1CC(N)C(=O)O (centres unmarked) [Code 717] | – | Weak (More than 75)
Cl.Cl.Cn1ncnc1CC(N)C(=O)O (centres unmarked) [Code 770] | – | Weak (More than 75)
